Measured values: patent US11649255B2, “Indazoles as hematopoietic progenitor kinase 1 (HPK1) inhibitors and methods using same” (1st Biotherapeutics, Inc., priority 2020, dated 2023)
Read-outs that look alike come from different tables or passages of the source.

Tests used:
[1] = target: recombinant human HPK1 (Homo sapiens (Human), UniProt Q92918); assay: HPK1 kinase assay (ADP-Glo); format: biochemical; details: 25 μM ATP, MBP substrate
Method in brief: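 Activity was read as ADP formed, detected by ADP-Glo luminescence after the reaction of 5 ng recombinant human HPK1 with MBP and ATP (stocks 0.5 μg/μl and 25 μM) for 40 min at 30 °C. Buffer was Tris pH 7.5 with MgCl2, BSA and DTT, with compound in 0.5% DMSO. IC50 came from inhibition curves.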

[2] = system: human peripheral blood pan T cells; assay: IFNγ and IL-2 analysis of human peripheral pan T cells; format: cell-based; details: T-cell, CD3/CD28 bead stimulation, 100 nM Prostaglandin E2, 24 hr
Experimental: IFNγ and IL-2 Analysis of Human Peripheral Pan T Cells
Human peripheral blood pan T cells were purchased from STEMCELL™ Technologies Inc. Human peripheral blood pan T cells were thawed and suspended in DMEM media (10% FBS and 10 Penicillin/Streptomycin). 8×10^4 T cells were seeded in 96-well plate and incubated with various concentration of compounds and 100 nM Prostaglandin E2 for 1 hr. T cells were stimulated with Dynabeads Human T-Activator CD3/CD28 (Life Technologies) at a 1:3 cells: beads ratio. […] Data were analyzed with an MESO Quickplex SQ120 (Mesoscale Discovery).
In Table 3, the values represent + for >1000 nM, ++ 200-1,000 nM, +++ for <200 nM and − for not determined.

[3] = IFNγ secretion, read-out: IFNγ (EC50)
[4] = IL-2 secretion, read-out: IL-2 (EC50)

Sequence of recombinant human HPK1 (Q92918 whole entry): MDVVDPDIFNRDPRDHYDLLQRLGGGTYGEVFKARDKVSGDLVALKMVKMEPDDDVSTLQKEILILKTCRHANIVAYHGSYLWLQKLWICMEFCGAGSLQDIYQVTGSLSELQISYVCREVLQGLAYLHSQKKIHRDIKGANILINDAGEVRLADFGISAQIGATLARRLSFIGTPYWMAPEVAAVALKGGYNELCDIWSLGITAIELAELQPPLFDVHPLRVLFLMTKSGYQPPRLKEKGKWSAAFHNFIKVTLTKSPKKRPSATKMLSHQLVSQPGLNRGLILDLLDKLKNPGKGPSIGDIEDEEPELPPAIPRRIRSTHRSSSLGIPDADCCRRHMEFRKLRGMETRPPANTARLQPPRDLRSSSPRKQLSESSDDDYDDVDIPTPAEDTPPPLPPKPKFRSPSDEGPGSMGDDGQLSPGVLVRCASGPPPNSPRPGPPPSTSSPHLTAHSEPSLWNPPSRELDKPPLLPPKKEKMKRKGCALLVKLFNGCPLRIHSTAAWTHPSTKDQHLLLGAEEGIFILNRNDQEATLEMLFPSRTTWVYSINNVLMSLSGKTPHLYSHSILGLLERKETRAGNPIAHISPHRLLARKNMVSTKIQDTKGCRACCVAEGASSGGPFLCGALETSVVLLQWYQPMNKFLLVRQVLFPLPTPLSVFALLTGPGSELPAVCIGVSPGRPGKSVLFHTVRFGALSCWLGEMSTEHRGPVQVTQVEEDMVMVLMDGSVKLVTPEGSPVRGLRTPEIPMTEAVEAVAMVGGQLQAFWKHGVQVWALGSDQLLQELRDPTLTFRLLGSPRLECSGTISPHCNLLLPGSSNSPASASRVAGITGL

Row | IC50 [1] [nM] | EC50 [2, 3] [nM] | EC50 [2, 4] [nM] | Structure (SMILES)
1 | < 100 | 200 to 1000 | – | CCc1c(F)c(F)c2[nH]ncc2c1-c1ccn2nc(NC(=O)[C@@H]3C[C@@H]3F)cc2c1 [Example 532, (1S,2S)-N-(5-(5-ethyl-6,7-difluoro-1H-indazol-4-yl)pyrazolo[1,5-a]pyridin-2-yl)-2-fluorocyclopropane-1-carboxamide]
2 | < 100 | < 200 | – | Cc1c(F)c(SCCO)c2[nH]ncc2c1-c1ccn2nc(NC(=O)[C@@H]3C[C@@H]3F)cc2c1 [Example 523, (1S,2S)-2-fluoro-N-(5-(6-fluoro-7-((2-hydroxyethyl)thio)-5-methyl-1H-indazol-4-yl)pyrazolo[1,5-a]pyridin-2-yl)cyclopropane-1-carboxamide]
3 | < 100 | < 200 | – | CN(C)C(=O)c1c(F)c(Cl)c(-c2ccc3nc(NC(=O)[C@@H]4C[C@@H]4F)sc3c2)c2cn[nH]c12 [Example 125, 5-chloro-6-fluoro-4-(2-((1S,2S)-2-fluorocyclopropane-1-carboxamido)benzo[d]thiazol-6-yl)-N,N-dimethyl-1H-indazole-7-carboxamide]
4 | < 100 | 200 to 1000 | 200 to 1000 | CN(C)c1c(F)c(Cl)c(-c2ccc3nc(NC(=O)[C@H]4C[C@H]4F)cn3c2)c2cn[nH]c12 [Example 334, (1R,2R)-N-(6-(5-chloro-7-(dimethylamino)-6-fluoro-1H-indazol-4-yl)imidazo[1,2-a]pyridin-2-yl)-2-fluorocyclopropane-1-carboxamide]
5 | < 100 | < 200 | > 1000 | Cc1c(F)c(Cl)c(-c2ccn3nc(NC(=O)[C@@H]4C[C@@H]4F)cc3c2)c2cn[nH]c12 [Example 579, (1S,2S)-N-(5-(5-chloro-6-fluoro-7-methyl-1H-indazol-4-yl)pyrazolo[1,5-a]pyridin-2-yl)-2-fluorocyclopropane-1-carboxamide]
6 | < 100 | 200 to 1000 | > 1000 | Cc1c(F)c(N(C)C)c2[nH]ncc2c1-c1ccc2nc(NC(=O)[C@@H]3C[C@@H]3F)sc2n1 [Example 169, (1S,2S)-N-(5-(7-(dimethylamino)-6-fluoro-5-methyl-1H-indazol-4-yl)thiazolo[5,4-b]pyridin-2-yl)-2-fluorocyclopropane-1-carboxamide]
7 | < 100 | 200 to 1000 | – | CN(C)c1c(F)c(Cl)c(-c2ccc3nc(NC(=O)[C@@H]4C[C@@H]4F)sc3n2)c2cn[nH]c12 [Example 172, (1S,2S)-N-(5-(5-chloro-7-(dimethylamino)-6-fluoro-1H-indazol-4-yl)thiazolo[5,4-b]pyridin-2-yl)-2-fluorocyclopropane-1-carboxamide]
8 | < 100 | < 200 | 200 to 1000 | CCc1c(F)c(N(C)C)c2[nH]ncc2c1-c1ccc2nc(NC(=O)[C@@H]3C[C@@H]3F)cn2c1 [Example 291, (1S,2S)-N-(6-(7-(dimethylamino)-5-ethyl-6-fluoro-1H-indazol-4-yl)imidazo[1,2-a]pyridin-2-yl)-2-fluorocyclopropane-1-carboxamide]
9 | < 100 | 200 to 1000 | – | CSc1c(F)c(Cl)c(-c2ccc3nc(NC(=O)[C@@H]4C[C@@H]4F)sc3n2)c2cn[nH]c12 [Example 174, (1S,2S)-N-(5-(5-chloro-6-fluoro-7-(methylthio)-1H-indazol-4-yl)thiazolo[5,4-b]pyridin-2-yl)-2-fluorocyclopropane-1-carboxamide]
10 | < 100 | < 200 | 200 to 1000 | CCOc1c(F)c(SC)c(-c2ccn3nc(NC(=O)[C@@H]4C[C@@H]4F)cc3c2)c2cn[nH]c12 [Example 543, (1S,2S)-N-(5-(7-ethoxy-6-fluoro-5-(methylthio)-1H-indazol-4-yl)pyrazolo[1,5-a]pyridin-2-yl)-2-fluorocyclopropane-1-carboxamide]
11 | < 100 | 200 to 1000 | – | CSc1c(F)c(C)c(-c2ccn3nc(NC(=O)[C@@H]4C[C@@H]4F)cc3c2)c2cn[nH]c12 [Example 488, (1S,2S)-2-fluoro-N-(5-(6-fluoro-5-methyl-7-(methylthio)-1H-indazol-4-yl)pyrazolo[1,5-a]pyridin-2-yl)cyclopropane-1-carboxamide]
12 | < 100 | 200 to 1000 | – | CSc1c(F)c(F)c2[nH]ncc2c1-c1ccn2nc(NC(=O)[C@@H]3C[C@@H]3F)cc2c1 [Example 541, (1S,2S)-N-(5-(6,7-difluoro-5-(methylthio)-1H-indazol-4-yl)pyrazolo[1,5-a]pyridin-2-yl)-2-fluorocyclopropane-1-carboxamide]
13 | < 100 | < 200 | < 200 | CSc1c(F)c(SC)c2[nH]ncc2c1-c1ccn2nc(NC(=O)[C@@H]3C[C@@H]3F)cc2c1 [Example 529, (1S,2S)-2-fluoro-N-(5-(6-fluoro-5,7-bis(methylthio)-1H-indazol-4-yl)pyrazolo[1,5-a]pyridin-2-yl)cyclopropane-1-carboxamide]
14 | < 100 | 200 to 1000 | > 1000 | CSc1c(F)cc2[nH]ncc2c1-c1ccn2nc(NC(=O)C3CC3)cc2c1 [Example 569, N-(5-(6-fluoro-5-(methylthio)-1H-indazol-4-yl)pyrazolo[1,5-a]pyridin-2-yl)cyclopropanecarboxamide]
15 | < 100 | < 200 | 200 to 1000 | CN(C)C(=O)c1c(F)c(Cl)c(-c2ccn3nc(NC(=O)[C@@H]4C[C@@H]4F)cc3c2)c2cn[nH]c12 [Example 556, 5-chloro-6-fluoro-4-(2-((1S,2S)-2-fluorocyclopropane-1-carboxamido)pyrazolo[1,5-a]pyridin-5-yl)-N,N-dimethyl-1H-indazole-7-carboxamide]
16 | < 100 | < 200 | 200 to 1000 | CN(C)c1c(F)c(Cl)c(-c2ccc3nc(NC(=O)C4CC4)cn3c2)c2cn[nH]c12 [Example 327, N-(6-(5-chloro-7-(dimethylamino)-6-fluoro-1H-indazol-4-yl)imidazo[1,2-a]pyridin-2-yl)cyclopropanecarboxamide]
17 | < 100 | < 200 | < 200 | CCc1c(F)c(SCC(=O)NC)c2[nH]ncc2c1-c1ccn2nc(NC(=O)[C@@H]3C[C@@H]3F)cc2c1 [Example 521, (1S,2S)-N-(5-(5-ethyl-6-fluoro-7-((2-(methylamino)-2-oxoethyl)thio)-1H-indazol-4-yl)pyrazolo[1,5-a]pyridin-2-yl)-2-fluorocyclopropane-1-carboxamide bis(2,2,2-trifluoroacetate)]
18 | < 100 | < 200 | 200 to 1000 | CN(C)c1c(F)c(Cl)c(-c2ccc3nc(NC(=O)[C@@H]4C[C@@H]4F)cn3c2)c2cn[nH]c12 [Example 258, (1S,2S)—N-(6-(5-chloro-7-(dimethylamino)-6-fluoro-1H-indazol-4-yl)imidazo[1,2-a]pyridin-2-yl)-2-fluorocyclopropane-1-carboxamide]
19 | < 100 | 200 to 1000 | – | Cc1c(F)c(C)c2[nH]ncc2c1-c1ccc2nc(NC(=O)[C@@H]3C[C@@H]3F)sc2n1 [Example 199, (1S,2S)-2-fluoro-N-(5-(6-fluoro-5,7-dimethyl-1H-indazol-4-yl)thiazolo[5,4-b]pyridin-2-yl)cyclopropane-1-carboxamide]
